Each block holds one compound with its values, some of them ahead of it.
How the values were obtained:
human CRTH2 = target: T1, human CRTH2 (Homo sapiens, UniProt Q9Y5Y4); assay: Human CRTH2 binding assay (3H-labeled PGD2 binding, membranes of HEK293 cells transfected with human CRTH2); conditions: membrane preparation of HEK293 cells with human CRTH2; 2 nM 3H-labeled PGD2; 4° C., 120 minutes; read-out: IC50 (nM), in vitro human CRTH2 binding assay
T1 construct: expressed in transfected cells; host or cells: HEK293 cells, stably transfected; membrane preparation
T1 sequence (Q9Y5Y4 1-395): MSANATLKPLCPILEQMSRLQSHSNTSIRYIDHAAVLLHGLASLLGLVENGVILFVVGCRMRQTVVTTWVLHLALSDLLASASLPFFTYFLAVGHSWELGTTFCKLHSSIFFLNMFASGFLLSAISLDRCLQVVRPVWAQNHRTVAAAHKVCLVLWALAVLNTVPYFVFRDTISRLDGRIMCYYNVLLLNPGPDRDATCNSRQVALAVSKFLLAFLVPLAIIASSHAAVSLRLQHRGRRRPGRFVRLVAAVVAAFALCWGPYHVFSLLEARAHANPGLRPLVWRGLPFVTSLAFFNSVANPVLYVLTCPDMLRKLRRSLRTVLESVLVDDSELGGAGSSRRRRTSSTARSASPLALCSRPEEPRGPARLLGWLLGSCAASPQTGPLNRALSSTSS
Procedure: Human CRTH2 Binding Assay
To evaluate CRTH2 binding activities of example compounds, PGD2 binding assay was performed as modifications of former paper (Journal of pharmacology and experimental therapeutics, 2003, 306(2), pp. 463-470).
HEK293 cells stably transfected with human CRTH2 cDNA were suspended in assay buffer (10 mM BES, 1 mM EDTA, 10 mM MnCl2, pH=7.0) and broken into pieces by strong mixture using injection needle. The membrane preparation at the concentration of 50 μg protein was mixed with various concentrations of compounds. Binding reaction was initiated by an addition of ^3H-labeled PGD2 to a final concentration of 2 nM and the reaction mixture was incubated at 4° C. for 120 minutes. The reaction was terminated by filtration using GF/B plate (PerkinElmer) which was washed with wash buffer (10 mM BES, 0.01% BSA). ^3H-labeled PGD2 which binds to CRTH2 were captured on this plate and the radioactivity was measured. The total and non-specific binding were determined in the absence and presence of 10 μM DK-PGD2. The binding activity of each compound was expressed as IC50 value.

[1] = test system: Guinea Pig antigen-induced hyper-responsiveness; assay: Guinea Pig antigen-induced hyper-responsiveness model; format: in vivo; conditions: OVA-sensitized male Hartley guinea pigs, AUC of peak inflation pressure versus methacholine dose
Procedure: Guinea Pig Antigen-Induced Hyper-Responsiveness Model
To evaluate anti asthma efficacy of the compounds, they were administered to Guinea Pig antigen-induced hyper-responsiveness model which is cited in the literature with minor modifications (Agents Actions, 1992, 37, pp. 162-164).
Male Hartley guinea pigs were actively sensitized to ovalbumin (OVA) by i.p. injection of 20 mg in 0.9% saline at day 0 and 1 mg at day 2. Animals were exposed for 10 minutes on days 14-21 to an aerosol of 0.5% OVA solution in 0.9% saline or saline alone generated from a nebulizer. All animals were treated with compound by p.o. administration 60 minutes prior to the aerosol and 1 mg/kg pyrilamine by i.p. injection 30 minutes prior to the aerosol. On day 22, animal was anesthetized with urethane (1.5 g/kg). The trachea was cannulated and the animal was mechanically ventilated (60 strokes/minute; 1 mL/100 g body weight) with a small animal respirator. Pulmonary inflation pressure (PIP) was monitored with a pressure transducer. Doses of methacholine (0-14 μg/kg) were administered sequentially (3 minutes intervals) by the right jugular vein to each animal. The area under the peak inflation pressure versus methacholine dose curve (AUC) was calculated for each animal.

SMILES: O=C(O)COc1cccc(CCCn2cc(C(c3ccccc3)c3ccccc3)ccc2=O)c1 [Example 10, (3-{3-[5-(diphenylmethyl)-2-oxopyridin-1(2H)-yl]propyl}phenoxy)acetic acid]
- IC50 (human CRTH2): 42 nM
- inhibition (%) ([1]; dose 10 mg/kg p.o.): 100%

SMILES: C[C@H](Oc1cccc(CCCn2nc(C(c3ccccc3)c3ccccc3)ccc2=O)c1)C(=O)O [Example 59, (2S)-2-(3-{3-[3-(Diphenylmethyl)-6-oxopyridazin-1(6H)-yl]propyl}phenoxy)propanoic acid]
- IC50 (human CRTH2): 13 nM
- inhibition (%) ([1]; dose 3 mg/kg p.o.): 93%

SMILES: O=C(O)CCCOc1cccc(CCCn2nc(C(c3ccccc3)c3ccccc3)ccc2=O)c1 [Example 69, 4-(3-{3-[3-(Diphenylmethyl)-6-oxopyridazin-1(6H)-yl]propyl}phenoxy)butanoic acid]
- IC50 (human CRTH2): 14 nM

SMILES: O=C(O)CCCOc1cccc(CCCn2nc(C(c3ccc(F)cc3)c3ccc(F)cc3)ccc2=O)c1 [Example 111, 4-[3-(3-{3-[Bis(4-fluorophenyl)methyl]-6-oxopyridazin-1(6H)-yl}propyl)phenoxy]butanoic acid]
- IC50 (human CRTH2): 18 nM
- inhibition (%) ([1]; dose 3 mg/kg p.o.): 89%

SMILES: O=C(O)CCCOc1cccc(CCCn2cc(C(c3ccc(F)cc3)c3ccc(F)cc3)ccc2=O)c1 [Example 112, 4-[3-(3-{5-[Bis(4-fluorophenyl)methyl]-2-oxopyridin-1(2H)-yl}propyl)phenoxy]butanoic acid]
- IC50 (human CRTH2): 24 nM
- inhibition (%) ([1]; dose 1 mg/kg p.o.): 60%

The next compounds have a lower IC50 (human CRTH2) than those just listed; values first:

- IC50 (human CRTH2): 8.1 nM
SMILES: O=C(O)CCCOc1cccc(SCCn2cc(C(c3ccccc3)c3ccccc3)ccc2=O)c1 [Example 84, 4-[3-({2-[5-(Diphenylmethyl)-2-oxopyridin-1(2H)-yl]ethyl}sulfanyl)phenoxy]butanoic acid]
- inhibition (%) ([1]; dose 3 mg/kg p.o.): 100%

- IC50 (human CRTH2): 7.6 nM
SMILES: O=C(O)COc1cccc(CCCn2cc(-c3ccccc3-c3cccc4ccccc34)ccc2=O)c1 [Example 123, [3-(3-{5-[2-(1-Naphthyl)phenyl]-2-oxopyridin-1(2H)-yl}propyl)phenoxy]acetic acid]

- IC50 (human CRTH2): 5.5 nM
SMILES: O=C(O)COc1cccc(CCCN2C(=O)OC[C@@H]2C(c2ccccc2)c2ccccc2)c1 [Example 72, (3-{3-[(4S)-4-(Diphenylmethyl)-2-oxo-1,3-oxazolidin-3-yl]propyl}phenoxy)acetic acid]

- IC50 (human CRTH2): 4.8 nM
SMILES: NS(=O)(=O)c1cccc(C(=O)N(CCCc2cccc(OCC(=O)O)c2)CCC(c2ccccc2)c2ccccc2)c1 [Example 99, [3-(3-{[3-(Aminosulfonyl)benzoyl](3,3-diphenylpropyl)amino}propyl)phenoxy]acetic acid]

- IC50 (human CRTH2): 3.6 nM
SMILES: O=C(O)Cn1ccc2c(CCCn3cc(C(c4ccccc4)c4ccccc4)ccc3=O)cccc21 [Example 4, (4-{3-[5-(diphenylmethyl)-2-oxopyridin-1(2H)-yl]propyl}-1H-indol-1-yl)acetic acid]

Source: patent US8273745B2, “Polycyclic acid compounds useful as CRTH2 antagonists and antiallergic agents” (Astellas Pharma Inc, priority 2006, dated 2012)
